Experimental data from patent EP2408450B1, “ALPHA-(N-SULFONAMIDO)ACETAMIDE COMPOUND AS AN INHIBITOR OF BETA AMYLOID PEPTIDE PRODUCTION” (Bristol-Myers Squibb Company, priority 2009, dated 2010).
Marks after values point to notes of the source that are not given here.

Legend:
[1] = Metabolic stability in liver microsomes (mouse); format: in vitro ADME
Method: (§1) Mouse, rat, dog, human, and cynomolgus monkey liver microsomes were obtained from BD Gentest (Woburn, MA). The lot numbers were 13 (mouse), 8 (rat), 8 (dog), 19 and 26 (human), and 3 (cynomolgus monkey). […] The reaction, conducted in triplicate, was initiated by the addition of NADPH followed by incubation at 37°C for 50 minutes. Aliquots of samples (0.25 mL) were taken at 0, 5, 10, 20, 30, 40 and 50 minutes and the reaction was quenched by the addition of 3 volumes of acetonitrile. […] The reaction, conducted in triplicate, was initiated by the addition of NADPH followed by incubation at 37 °C for 50 minutes. Aliquots of samples (0.25 mL) were taken at 0, 5, 10, 20, 30, 40 and 50 minutes and the reaction was quenched by the addition of 3 volumes of acetonitrile. […] The reaction, conducted in duplicate, was initiated by the addition of NADPH followed by incubation at 37°C for 40 minutes. Aliquots of samples (0.25 mL) were taken at 0, 5, 10, 15, 20, 30 and 40 minutes and the reaction was quenched by the addition of 3 volumes of acetonitrile. For all studies, samples were analyzed immediately by an LC/MS method.

[2] = Metabolic stability in liver microsomes (dog); format: in vitro ADME
Method: as §1

[3] = system: Aβ40; assay: Inhibition of Aβ40 formation in cultured H4 APP751 SWE cells; format: cell-based; details: H4-8Sw cells, mean ± SD, n = 50
Method: Cells were maintained in log phase through twice weekly passage at a 1:20 dilution. […] Following incubation for 19 hours in 5% CO2 at 37°C, plates were briefly centrifuged (1000 rpm, 5 min). […] Antibody cocktails were freshly prepared by dilution into 40 mM Tris-HCl (pH 7.4) with 0.2% BSA and added to assay plates. […] Assay plates containing antibodies were sealed with aluminum foil and incubated overnight at 4°C. Signal was determined using a Viewlux counter (Perkin Elmer) and IC50 values determined using curve fitting in CurveMaster (Excel Fit based).

[4] = system: CSF Aβ40; assay: Rat CSF Aβ40 assay (4G8-TSD ELISA); format: in vivo; details: acute rat studies; read-out: ED50 for reduction of CSF Aβ40
From the text: As a result of these sequence differences, antibodies that recognize the N-terminal region of human Aβ, such as 26D6, bind weakly to rodent Aβ. […] Table 1: Summary of Antibody Pairs Used to Assay In vivo Samples Each of these assays was validated using several methods. […] The optimized and validated Aβ assays still contained a small amount of the signal (5-20% of vehicle control) which could not be depleted by anti-Aβ antibodies or treatment with γ-secretase inhibitors. […] Female Harlan Sprague-Dawley rats (∼200 - 250 g) were dosed daily by oral gavage with a dosing vehicle of 99% PEG-400, 1% Tween-80 at 4 mL/kg in the morning. […] All procedures were done in concordance with ACUC guidelines. […] Plasma was obtained after centrifugation. […] CSF samples were centrifuged to remove cells or debris prior to dilution at 1:2 in 4% BSA and frozen for subsequent analysis. […] Plates were coated with TSD antibody and washed as for the brain Aβ40 assay. CSF samples were diluted 1:10 in PBS, pH 7.8, 0.1 % Tween-20. At time of collection, CSF was previously diluted 1:2 in 4% BSA in water. […] Samples were detected using 4G8-biotin (Signet) diluted 1:8000 in PBS, 0.05% Tween, 0.1% BSA for 1 hour.

[5] = system: γ-secretase inhibitor binding sites in the brain; assay: Gamma-secretase site occupancy in rat brain sections; format: in vivo
Method: (§2) Female Harlan Sprague-Dawley rats (∼200 - 250 g) were dosed daily by oral gavage with a dosing vehicle of 99% PEG-400, 1% Tween-80 at 4 mL/kg in the morning. […] All procedures were done in concordance with ACUC guidelines. […] Plasma was obtained after centrifugation. […] CSF samples were centrifuged to remove cells or debris prior to dilution at 1:2 in 4% BSA and frozen for subsequent analysis.
Brain sections were cut coronally at a thickness of 20 µm on a cryostat and thaw-mounted onto Superfrost Plus slides. Sections were saved at the level of the rostral hippocampus, with 3 sections per slide at intervals of about 120 µm, and frozen at -20°C until use. For occupancy studies, brain sections were warmed to room temperature, dried, incubated for 10 minutes in 50 mM HEPES buffer, pH 7.4, then transferred to the same buffer containing 1.5 nM [^3H]IN973 (Goldstein, M.E. et al., J. Pharmacol. Exp. Ther., 323:102-108 (2007)) or [^3H] (R)-4-((N-(1-amino-4-methyl-1-oxopentan-2-yl)-4-chlorophenylsulfonamido)methyl)-N-(2-methoxyethyl)benzamide and incubated at room temperature for 10 minutes. To define nonspecific binding, adjacent sections were incubated in buffer containing [^3H]IN973 or [^3H] (R)-4-((N-(1-amino-4-methyl-1-oxopentan-2-yl)-4-chlorophenylsulfonamido)methyl)-N-(2-methoxyethyl)benzamide, but including unlabeled γ-secretase inhibitor at 0.5 µM. After the incubation, the slides were washed three times for 2 minutes each in ice-cold PBS, pH 7.2, dipped in ice-cold distilled water, and dried with a fan blowing cool air. The slides were placed under tritium-sensitive phosphor storage screens (Amersham Biosciences, Arlington Heights, IL) and exposed in the dark for 7 days. Images were acquired from the phosphor storage screens using a Cyclone phosphor scanner (Packard, Meriden, CT) and OptiQuant acquisition and analysis software (Packard). Optical densities (expressed as digital light units per square millimeter) over areas of interest were measured and expressed as a percent of vehicle control.

[6] = system: proximal duodenum; assay: Histopathology of the proximal duodenum (GI toxicity) in rats; format: in vivo, rat; details: for Day 4 GI Tox: 4 days; for Day 7 GI Tox: 7 days; for GI Tox: 4-day
Method: as §2
Following euthanasia by CO2 asphyxiation, approximately 3 cm long sections of the proximal duodenum were removed from the abdomen, rinsed with ice cold Phosphate buffered saline and placed into 10% buffered formalin prior to sectioning. Tissue sections of the duodenum were embedded in liquid paraffin, mounted onto blocks, and cut into triplicate sagittal (cross-luminal) ring sections and stained using the Periodic acid Schiff's base method prior to microscopic evaluation. All animals survived until scheduled necropsy was performed.

[7] = system: CYP3A4 mRNA; details: human, 3 days, 20 µM
Method: [[2-fluoro-4-(1,2,4-oxadiazol-3-yl)phenyl]methyl]amino]-5,5,5-trifluoropentanamide to induce CYP3A4 mRNA was evaluated in vitro using the Fa2N-4 cell line. The Fa2N-4 cell is an immortalized human hepatocyte line that was created using the Simian virus 40 (SV40) T antigen as the immortalizing gene, while retaining basal expression and inducibility of several CYP isoforms, including CYP3A4. Fa2N-4 cells and MFE Support Media F were provided by XenoTech, LLC (Lenexa, Kansas).
Upon the receipt of the cells, the media were changed and the cells maintained overnight in a humidified, CO2-supplied incubator. After this adaptation period, the cells were examined under a light microscope and a determination was made as to whether the cells were morphologically normal and suitable for use. During the treatment period, the cells were visually inspected on a daily basis; cellular morphology, confluency, and signs of toxicity due to the test article were documented as necessary. […] Rifampicin (10 µM), a prototypical CYP3A4 inducer, was used as the positive control. Fa2N-4 cells were exposed to the test articles for a total of 3 days. The culture medium was replaced daily with fresh medium containing the test articles. After a total of ~72 hours of exposure, medium was aspirated and the cells washed once with warm phosphate buffered saline solution before adding the cell lysis buffer (Qiagen, Valencia, CA).

[8] = system: plasma Aβ40; assay: Rat plasma Aβ40 assay (4G8-TSD ELISA); details: for plasma Aβ40, % of baseline Aβ40 values: 2 to 24 hours post dosing

## NC(=O)[C@@H](CCC(F)(F)F)N(Cc1ccc(-c2ncon2)cc1F)S(=O)(=O)c1ccc(Cl)cc1 [(2R)-2-[[(4-chlorophenyl)sulfonyl][[2-fluoro-4-(1,2,4-oxadiazol-3-yl)phenyl]methyl]amino]-5,5,5-trifluoropentanamide]
[1]; mouse microsomes, NADPH-fortified, 1 µM
  rate of in vitro metabolism: 690 pmol/min/mg protein
[1]; mouse, scaled from liver microsome rate
  predicted in vivo (serum) clearance: approximately 87 mL/min/kg
[2]; dog microsomes, NADPH-fortified, 1 µM
  rate of in vitro metabolism: 40 pmol/min/mg protein
[2]; dog, scaled from liver microsome rate
  predicted in vivo (serum) clearance: ~14 mL/min/kg
[3]
  IC50: 0.3 ± 0.15 nM
[4]
  ED50: 1 to 10 mg/kg
[5]; single dose 1 mg/kg, by 24 hours
  site occupancy: gradually returned to baseline values
[5]; single dose 1 mg/kg, two hours after dose
  brain γ-secretase binding sites occupied: 75%
[5]; single dose 10 mg/kg, 24 hr timepoint
  γ-secretase inhibitor binding sites in the brain occupied: 88%
[5]; single dose 10 mg/kg, all but the 24 hr timepoint
  γ-secretase inhibitor binding sites in the brain occupied: greater than 94%
[5]; single dose 100 mg/kg, throughout the dosing interval
  γ-secretase inhibitor binding sites in the brain occupied: greater than 94%
[6]; 100 mg/kg/day, 4-day rat study
  rats with mild lesions in duodenal tissue (histological evaluation): 1/3
[6]; Rat Study No. 3, 30 mg/kg/day
  Day 4 GI Tox: NAD
  Day 7 GI Tox: NAD
[6]; Rat Study No. 3, 300 mg/kg/day
  Day 4 GI Tox: +^b
  Day 7 GI Tox: NAD
[6]; female, Harlan Sprague-Dawley, rat, in vivo
  dose needed to induce GI toxicity: 100 mg/kg/day
[6]; rat, Study No. 2, 3 mg/kg/day
  GI Tox: NAD
[6]; rat, Study No. 2, 10 mg/kg/day
  GI Tox: NAD
[6]; rat, Study No. 2, 30 mg/kg/day
  GI Tox: NAD
[6]; rat, Study No. 2, 100 mg/kg/day
  GI Tox: +^e
[6]; rat, Study No.1, 3 mg/kg/day
  GI Tox: NAD
[6]; rat, Study No.1, 10 mg/kg/day
  GI Tox: NAD
[6]; rat, Study No.1, 30 mg/kg/day
  GI Tox: NAD
[6]; rats given ≤ 30 mg/kg
  drug-related duodenal changes: No drug-related duodenal changes
[6]; rats, 100 mg/kg/day once daily for 4 days, 1 of 3 animals
  microscopic evaluation of the proximal duodenum: slight goblet cell metaplasia
[7]
  magnitude of induction as % of the induction response caused by rifampicin: 22%
[8]; Rattus norvegicus, read-out: ED50 for reduction of plasma Aβ40
  ED50: 1 to 10 mg/kg
[8]; rat, single dose 1 mg/kg, by 8 hours
  plasma Aβ40, % of starting values: 250%
[8]; rat, single dose 1 mg/kg, by 24 hours
  plasma Aβ40: returning to baseline values
[8]; rat, single dose 10 mg/kg
  plasma Aβ40, % of baseline Aβ40 values: less than 25%
[8]; rat, single dose 30 mg/kg
  plasma Aβ40, % of vehicle control: 2%
[8]; rat, single dose 100 mg/kg
  plasma Aβ40, % of baseline Aβ40 values: less than 25%
